Experimental data taken from paper PMC9516332 (Frontiers in Oncology, 2022).
Where two headings read alike, the source gives them in different places.

Tested on: 134 cancer cell lines
Assay: Cell viability assay (ATPlite, 72 hours), IC50 on cancer cell line panel

## CC(=O)Nc1cccc(-n2c(=O)n(C3CC3)c(=O)c3c(Nc4ccc(I)cc4F)n(C)c(=O)c(C)c32)c1 [trametinib]
Homo sapiens, MOLT-4, read-out: IC50 in cell proliferation assay, MOLT-4 cell line
  IC50: 27.6 µM
Homo sapiens, MV4-11, read-out: IC50 in cell proliferation assay, MV4-11 cell line (FLT3 ITD)
  IC50: 0.022 µM
Homo sapiens, MeWo, read-out: IC50 in cell proliferation assay, MeWo cell line
  IC50: 0.036 µM
Homo sapiens, NCCIT, read-out: IC50 in cell proliferation assay, NCC-IT cell line
  IC50: 0.871 µM
Homo sapiens, NCI-H82, read-out: IC50 in cell proliferation assay, cell line NCI-H82
  IC50: > 28.2 µM
Homo sapiens, NCI-H460, read-out: IC50 in cell proliferation assay, NCI-H460 cell line
  IC50: 0.033 µM
Homo sapiens, NCI-H661, read-out: IC50 in cell proliferation assay, NCI-H661 cell line
  IC50: > 28.2 µM
Homo sapiens, NCI-H716, read-out: IC50 in cell proliferation assay, cell line NCI-H716 (FGFR2-COL14A1)
  IC50: 0.034 µM
Homo sapiens, NCI-H1650, read-out: IC50 in cell proliferation assay, NCI-H1650 cell line (EGFR exon19del)
  IC50: 0.075 µM
Homo sapiens, NCI-H1975, read-out: IC50 in cell proliferation assay, NCI-H1975 cell line (EGFR p.L858R + p.T790M)
  IC50: 0.085 µM
Homo sapiens, NCI-H2228, read-out: IC50 in cell proliferation assay, NCI-H2228 cell line (EML4-ALK)
  IC50: 0.265 µM
Homo sapiens, OVCAR-3, read-out: IC50 in cell proliferation assay, cell line OVCAR-3
  IC50: > 28.2 µM
Homo sapiens, PFSK-1, read-out: IC50 in cell proliferation assay, cell line PFSK-1
  IC50: > 28.2 µM
Homo sapiens, RL95-2, read-out: IC50 in cell proliferation assay, cell line RL95-2 (EGFR p.A289V)
  IC50: 0.00155 µM
Homo sapiens, RPMI-7951, read-out: IC50 in cell proliferation assay, cell line RPMI-7951 (BRAF p.V600E)
  IC50: 0.017 µM
Homo sapiens, RS4-11, read-out: IC50 in cell proliferation assay, cell line RS4;11
  IC50: > 28.2 µM
Homo sapiens, Rec1, read-out: IC50 in cell proliferation assay, cell line REC-1
  IC50: 12.3 µM
Homo sapiens, SHP77, read-out: IC50 in cell proliferation assay, cell line SHP-77
  IC50: > 28.2 µM
Homo sapiens, SK-BR-3, read-out: IC50 in cell proliferation assay, cell line SK-BR-3 (ERBB2 amplification)
  IC50: > 31.6 µM
Homo sapiens, SK-N-AS, read-out: IC50 in cell proliferation assay, cell line SK-N-AS
  IC50: 0.004 µM
Homo sapiens, SK-N-FI, read-out: IC50 in cell proliferation assay, cell line SK-N-FI
  IC50: 0.034 µM
Homo sapiens, SK-N-MC, read-out: IC50 in cell proliferation assay, cell line SK-N-MC
  IC50: > 31.6 µM
Homo sapiens, SK-N-SH, read-out: IC50 in cell proliferation assay, cell line SK-N-SH (ALK p.F1174L)
  IC50: 0.017 µM
Homo sapiens, SNU-5, read-out: IC50 in cell proliferation assay, cell line SNU-5 (MET amplification)
  IC50: 0.012 µM
Homo sapiens, SNU-16, read-out: IC50 in cell proliferation assay, cell line SNU-16 (FGFR2 amplification)
  IC50: 0.146 µM
Homo sapiens, SNU-C2B, read-out: IC50 in cell proliferation assay, cell line SNU-C2B (EGFR p.R165Q)
  IC50: 0.041 µM
Homo sapiens, SU-DHL-1, read-out: IC50 in cell proliferation assay, cell line SU-DHL-1 (NPM1-ALK)
  IC50: 0.279 µM
Homo sapiens, SU-DHL-6, read-out: IC50 in cell proliferation assay, cell line SU-DHL-6
  IC50: 0.027 µM
Homo sapiens, SUP-T1, read-out: IC50 in cell proliferation assay, cell line SUP-T1
  IC50: > 28.2 µM
Homo sapiens, SW48, read-out: IC50 in cell proliferation assay, cell line SW48 (EGFR p.G719S)
  IC50: 0.006 µM
Homo sapiens, SW480, read-out: IC50 in cell proliferation assay, cell line SW480
  IC50: 0.23 µM
Homo sapiens, SW626, read-out: IC50 in cell proliferation assay, cell line SW626
  IC50: 0.059 µM
Homo sapiens, SW780, read-out: IC50 in cell proliferation assay, cell line SW780 (FGFR3-BAIAP2L1)
  IC50: 0.02 µM
Homo sapiens, SW837, read-out: IC50 in cell proliferation assay, cell line SW837
  IC50: 0.098 µM
Homo sapiens, SW872, read-out: IC50 in cell proliferation assay, cell line SW872 (BRAF p.V600E)
  IC50: 0.023 µM
Homo sapiens, SW900, read-out: IC50 in cell proliferation assay, cell line SW900
  IC50: 0.111 µM
Homo sapiens, SW948, read-out: IC50 in cell proliferation assay, cell line SW948
  IC50: 0.026 µM
Homo sapiens, SW982, read-out: IC50 in cell proliferation assay, cell line SW982 (BRAF p.V600E)
  IC50: 0.929 µM
Homo sapiens, SW-620, read-out: IC50 in cell proliferation assay, cell line SW620
  IC50: 0.017 µM
Homo sapiens, T98G, read-out: IC50 in cell proliferation assay, cell line T98G
  IC50: > 28.2 µM
Homo sapiens, TCC-SUP, read-out: IC50 in cell proliferation assay, cell line TCCSUP
  IC50: 1.45 µM
Homo sapiens, THP-1, read-out: IC50 in cell proliferation assay, cell line THP-1
  IC50: 0.001 µM
Homo sapiens, U2OS, read-out: IC50 in cell proliferation assay, cell line U2OS
  IC50: 0.004 µM
Homo sapiens, U-87 MG, read-out: IC50 in cell proliferation assay, cell line U-87MG ATCC
  IC50: 0.245 µM
Homo sapiens, U-118-MG, read-out: IC50 in cell proliferation assay, cell line U-118MG
  IC50: 0.151 µM
Homo sapiens, UMUC3, read-out: IC50 in cell proliferation assay, cell line UM-UC-3
  IC50: 0.021 µM
Hs766T, read-out: IC50 in cell proliferation assay, Hs 766T cell line
  IC50: 0.00234 µM
L-82, read-out: IC50 in cell proliferation assay, L-82 cell line (NPM1-ALK)
  IC50: 0.086 µM
Rh30, read-out: IC50 in cell proliferation assay, cell line Rh30
  IC50: 0.237 µM
read-out: IC50 in cell proliferation assay, 11-18 cell line (EGFR p.L858R)
  IC50: > 31.6 µM
read-out: IC50 in cell proliferation assay, Hs 852.T cell line
  IC50: 0.218 µM
read-out: IC50 in cell proliferation assay, JAR cell line
  IC50: > 28.2 µM
read-out: IC50 in cell proliferation assay, cell line 5637
  IC50: 0.297 µM
read-out: IC50 in cell proliferation assay, cell line A-388
  IC50: 0.099 µM
read-out: IC50 in cell proliferation assay, cell line DB
  IC50: 18.9 µM
read-out: IC50 in cell proliferation assay, cell line DEL (NPM1-ALK)
  IC50: > 31.6 µM
read-out: IC50 in cell proliferation assay, cell line ES-2 (BRAF p.V600E)
  IC50: 0.007 µM
read-out: IC50 in cell proliferation assay, cell line PA-1
  IC50: 0.666 µM
read-out: IC50 in cell proliferation assay, cell line PC-3
  IC50: > 28.2 µM
read-out: IC50 in cell proliferation assay, cell line RD
  IC50: 0.004 µM
read-out: IC50 in cell proliferation assay, cell line RKO (BRAF p.V600E)
  IC50: 0.008 µM
read-out: IC50 in cell proliferation assay, cell line RL
  IC50: > 28.2 µM
read-out: IC50 in cell proliferation assay, cell line RT-4 (FGFR3-TACC3)
  IC50: 0.072 µM
read-out: IC50 in cell proliferation assay, cell line SR (NPM1-ALK)
  IC50: 0.936 µM
read-out: IC50 in cell proliferation assay, cell line T24
  IC50: 0.005 µM
read-out: IC50 in cell proliferation assay, cell line TT (RET p.C634W)
  IC50: 1.05 µM
read-out: IC50 in cell proliferation assay, cell line VA-ES-BJ
  IC50: 0.089 µM
